In US20250084063A1 (Incyte Corporation, priority 2023, published 2025):

Experiments:
Assay type in all cases: cell-based
MRGPRX2 [1] = molecular target: T1, MRGPRX2 (Homo sapiens, UniProt Q96LB1); test: MRGPRX2 IP1 HTRF assay; set-up: host or cells: CHO-K1; conditions: CHO-K1 cells stably expressing human MRGPRX2; IP1 accumulation, agonist Cortistatin 14 1 μM
T1 sequence (Q96LB1 1-330): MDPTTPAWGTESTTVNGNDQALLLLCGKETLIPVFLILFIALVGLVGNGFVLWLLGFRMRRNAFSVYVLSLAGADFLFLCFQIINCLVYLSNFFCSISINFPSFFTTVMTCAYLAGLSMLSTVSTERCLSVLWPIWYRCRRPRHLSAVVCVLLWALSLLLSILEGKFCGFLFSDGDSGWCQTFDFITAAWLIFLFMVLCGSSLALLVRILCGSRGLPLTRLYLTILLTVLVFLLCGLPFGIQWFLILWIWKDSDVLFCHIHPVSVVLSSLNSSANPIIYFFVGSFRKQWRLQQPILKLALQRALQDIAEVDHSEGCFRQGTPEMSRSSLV

MRGPRX2 [2] = molecular target: T1, MRGPRX2; test: MRGPRX2 β-Arrestin assay; set-up: host or cells: PathHunter CHO-K1; conditions: PathHunter CHO-K1 MRGPRX2 β-Arrestin cell line; agonist Cortistatin 14 0.25 μM
In short: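 PathHunter CHO-K1 cells expressing ProLink-tagged MRGPRX2 and enzyme-acceptor-tagged β-arrestin were preincubated with serially diluted compound 1 h at 37 °C, then stimulated with 0.25 μM cortistatin 14 (final) for 90 min. β-arrestin recruitment was read by luminescence; IC50 from 3- or 4-parameter Hill fits normalised to DMSO and reference antagonist controls.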

MRGPRX2 [3] = molecular target: T1, MRGPRX2; test: MRGPRX2 FLIPR calcium mobilization assay; set-up: host or cells: CHO-K1; conditions: CHO-K1 cells stably expressing human MRGPRX2; Ca2+ release, agonist Cortistatin-14 at EC80
In short: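 CHO-K1 cells stably expressing human MRGPRX2, loaded with Calcium 6 dye, pre-incubated 30 min at room temperature with test compound in HBSS/20 mM HEPES pH 7.4. Then challenged with Cortistatin-14 at EC80; baseline-adjusted peak fluorescence over 110 s fitted to a Hill equation for IC50.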

Measured: IC50

Nc1ccc(N2CCC(CNc3cc(C(F)(F)F)nc4ccc(Cl)cc34)(c3ccccc3)CC2)nn1 [Example 78, N-((1-(6-Aminopyridazin-3-yl)-4-phenylpiperidin-4-yl)methyl)-6-chloro-2-(trifluoromethyl)quinolin-4-amine]
0.1 to 100 nM: all assays above

NS(=O)(=O)N1CC(CNc2cc(C(F)(F)F)nc3ccc(Cl)cc23)(c2ccc(F)cn2)C1 [Example 46, 3-(((6-Chloro-2-(trifluoromethyl)quinolin-4-yl)amino)methyl)-3-(5-fluoropyridin-2-yl)azetidine-1-sulfonamide]
0.1 to 100 nM: all assays above
